Measurements as given in patent US20250051479A1, “CYTOTOXICITY TARGETING CHIMERAS FOR CXCR3-EXPRESSING CELLS” (GLAXOSMITHKLINE INTELLECTUAL PROPERTY DEVELOPMENT LIMITED, priority 2022, published 2025).

System: CHOK1 cells engineered to overexpress CXCR3
Assay: Antibody dependent cellular cytotoxicity (ADCC) reporter assay
Format: cell-based
Settings: with anti-cotinine antibody (human IgG1 Fc, S239D/I332E), Jurkat FcγRIIIa NFAT-luciferase reporter cells, incubated about 12-18 hours, average of two experimental runs, EC50 in molar (M)
Method: An antibody dependent cellular cytotoxicity (ADCC) reporter assay was conducted using the following four assay components: (i) ARM compound of Formula (I) targeting CXCR3 (concentrations ranging from 1 pM to 10 μM); (ii) anti-cotinine antibody having a heavy chain sequence of SEQ ID NO: 11 and a light chain sequence of SEQ ID NO: 12 (rabbit variable region with human IgG1 Fc domain containing DE mutation (S239D/I332E)) (concentrations ranging from 0.01 μg/mL-200 μg/mL); (iii) Target cells: CHOK1 cells engineered to overexpress CXCR3 (typically 1000-20,000 cells per well); and (iv) Reporter cells—Jurkat cells engineered to express FcγRIIIa with a reporter gene luciferase under the control of the NFAT promoter (typically 3000-75,000 cells per well). Reagents were combined in final volume of 20 μL in 384-well tissue culture treated plate. […]
Luminescence signal was measured on a microplate reader capable of measuring luminescence and signal:background was calculated by dividing the signal of a test well by the signal obtained when no compound of formula (I) was included in the assay. […]
ARMs compounds of Formula (I) were tested for ADCC activity in the above assay in two experimental runs and the results are shown in Table 3 below. […] The pEC50 value is the negative log of the EC50 value, wherein the EC50 value is half maximal effective concentration measured in molar (M). […]

| SMILES | EC50 (Cricetulus griseus, read-out: ADCC Reporter Assay pEC50 (converted)) [M] | ADCC Reporter Assay pEC50 |
| --- | --- | --- |
| CCOc1ccc(-n2c([C@@H](C)N(CC3CCN(C(=O)[C@H]4CC[C@H](NC(=O)CCCO[C@H]5CC[C@H](OCCNC(=O)[C@H]6CC(=O)N(C)[C@@H]6c6cccnc6)CC5)CC4)CC3)C(=O)Cc3ccc(F)c(C(F)(F)F)c3)nc3ncccc3c2=O)cc1 (racemic) [Example 2, (2S,3S)-N-(2-(((1R,4S)-4-(4-(((1S,4S)-4-(4-((N-((R)-1-(3-(4-ethoxyphenyl)-4-oxo-3,4-dihydropyrido[2,3-d]pyrimidin-2-yl)ethyl)-2-(4-fluoro-3-(trifluoromethyl)phenyl)acetamido)methyl)piperidine-1-carbonyl)cyclohexyl)amino)-4-oxobutoxy)cyclohexyl)oxy)ethyl)-1-methyl-5-oxo-2-(pyridin-3-yl)pyrrolidine-3-carboxamide] | 3.98e-09 | – |
| CCOc1ccc(-n2c([C@@H](C)N(CC3CCN(C(=O)C4CCC(NC(=O)CCCOC5CCC(OCCNC(=O)[C@H]6CC(=O)N(C)[C@@H]6c6cccnc6)CC5)CC4)CC3)C(=O)Cc3ccc(F)c(C(F)(F)F)c3)nc3ncccc3c2=O)cc1 (stereo partly drawn) [Example 1, (2S,3S)—N-(2-(((1R,4S)-4-(4-(((1R,4R)-4-(4-((N-((R)-1-(3-(4-ethoxyphenyl)-4-oxo-3,4-dihydropyrido[2,3-d]pyrimidin-2-yl)ethyl)-2-(4-fluoro-3-(trifluoromethyl)phenyl)acetamido)methyl)piperidine-1-carbonyl)cyclohexyl)amino)-4-oxobutoxy)cyclohexyl)oxy)ethyl)-1-methyl-5-oxo-2-(pyridin-3-yl)pyrrolidine-3-carboxamide] | – | 7.7 |
